In the Kinase Knowledgebase extract (Sharma et al. 2016):

Each compound was assayed against PIK3CG (human) (UniProt P48736) (assay: Inhibition of PIK3CG Kinase Activity).
Sequence of PIK3CG (human) (P48736 whole entry, looked up): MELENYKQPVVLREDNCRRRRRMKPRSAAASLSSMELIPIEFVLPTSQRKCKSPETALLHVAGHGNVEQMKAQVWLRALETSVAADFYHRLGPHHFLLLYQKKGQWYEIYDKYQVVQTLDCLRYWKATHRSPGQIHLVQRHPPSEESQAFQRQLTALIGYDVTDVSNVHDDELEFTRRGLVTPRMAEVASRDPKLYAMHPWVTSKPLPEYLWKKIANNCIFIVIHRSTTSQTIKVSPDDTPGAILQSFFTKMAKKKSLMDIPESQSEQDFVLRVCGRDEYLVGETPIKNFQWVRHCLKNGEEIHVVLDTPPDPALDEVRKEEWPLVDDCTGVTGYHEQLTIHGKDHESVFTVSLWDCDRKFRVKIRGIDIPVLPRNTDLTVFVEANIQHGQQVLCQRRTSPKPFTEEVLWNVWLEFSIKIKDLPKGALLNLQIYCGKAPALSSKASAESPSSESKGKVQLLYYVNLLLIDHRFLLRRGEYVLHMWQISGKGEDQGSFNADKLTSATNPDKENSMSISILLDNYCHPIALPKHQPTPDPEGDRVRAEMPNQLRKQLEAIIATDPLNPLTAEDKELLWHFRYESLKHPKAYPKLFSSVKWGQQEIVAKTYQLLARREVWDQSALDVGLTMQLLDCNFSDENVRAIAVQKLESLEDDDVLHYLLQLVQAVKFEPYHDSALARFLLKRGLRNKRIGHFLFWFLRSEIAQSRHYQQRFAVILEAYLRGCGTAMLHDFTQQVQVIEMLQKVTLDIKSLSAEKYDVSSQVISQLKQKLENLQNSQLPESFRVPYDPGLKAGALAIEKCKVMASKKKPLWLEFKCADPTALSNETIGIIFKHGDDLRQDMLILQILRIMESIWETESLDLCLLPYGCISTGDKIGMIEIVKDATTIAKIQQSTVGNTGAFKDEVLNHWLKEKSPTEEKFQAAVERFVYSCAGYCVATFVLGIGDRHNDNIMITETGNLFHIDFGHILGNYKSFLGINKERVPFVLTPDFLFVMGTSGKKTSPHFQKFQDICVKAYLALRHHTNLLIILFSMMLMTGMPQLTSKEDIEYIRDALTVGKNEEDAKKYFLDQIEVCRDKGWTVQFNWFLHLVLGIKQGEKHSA
For `CCCc1nccn1-c1cc(-c2sc(Nc3cc[nH]n3)nc2C)ccc1S(C)(=O)=O`, the IC50 was under 600 nM.
`Cc1nc(Nc2cncc(NCCN3CCOCC3)n2)sc1-c1ccc(S(N)(=O)=O)cc1` was tested, and the IC50 was under 600 nM.
In the case of `Cc1nc(Nc2ccn(C)n2)sc1-c1ccc(S(C)(=O)=O)c(F)c1`, the IC50 is reported as under 600 nM.
`Cc1nc(Nc2cnccn2)sc1-c1ccc(Cl)c(S(=O)(=O)NCCO)c1` gave an IC50 of under 600 nM.
`Cc1nc(Nc2ccccn2)sc1-c1ccc(S(N)(=O)=O)cc1` was tested, and the IC50 was under 600 nM.
`Cc1cnc(Nc2nc(C)c(-c3ccc(S(N)(=O)=O)cc3)s2)s1` gave an IC50 of under 600 nM.
`Cc1nc(Nc2cc[nH]n2)sc1-c1ccc(Cl)c(S(=O)(=O)NCCO)c1` gave an IC50 of under 600 nM.
In the case of `COc1cncc(Nc2nc(C)c(-c3ccc(S(N)(=O)=O)cc3)s2)n1`, the IC50 is reported as under 600 nM.
`Cc1nc(Nc2cccnc2)sc1-c1ccc(S(N)(=O)=O)cc1` showed an IC50 of under 600 nM.
For `Cc1nc(Nc2nc[nH]n2)sc1-c1ccc(S(N)(=O)=O)cc1`, the IC50 was under 600 nM.
`CCOc1cccc(Nc2nc(C)c(-c3ccc(S(N)(=O)=O)cc3)s2)n1` showed an IC50 of under 600 nM.
`Cc1nc(Nc2cnccn2)sc1-c1ccc(S(N)(=O)=O)c(Cl)c1` was tested, and the IC50 was under 600 nM.
Compound `CCOC(=O)CCc1nnc(Nc2nc(C)c(-c3ccc(S(N)(=O)=O)cc3)s2)s1` has an IC50 of under 600 nM.
`COc1cncc(Nc2nc(C)c(-c3ccc(S(=O)(=O)NC4CC4)cc3)s2)n1` was tested, and the IC50 was under 600 nM.
With `Cc1nc(Nc2nccs2)sc1-c1ccc(Cl)c(S(=O)(=O)NCCO)c1` the IC50 was under 600 nM.
In the case of `Cc1nc(Nc2cc[nH]n2)sc1-c1ccc(S(C)(=O)=O)c(C(F)(F)F)c1`, the IC50 is reported as under 600 nM.
`Cc1nc(Nc2ccncc2)sc1-c1ccc(S(N)(=O)=O)cc1` showed an IC50 of under 600 nM.
With `CCN(CC)CCCNc1cncc(Nc2nc(C)c(-c3ccc(S(N)(=O)=O)cc3)s2)n1` the IC50 was under 600 nM.
For `CCc1nccn1-c1cc(-c2sc(Nc3cnccn3)nc2C)ccc1S(C)(=O)=O`, the IC50 was under 600 nM.
Work on `Cc1nc(Nc2cnccn2)sc1-c1ccc(S(C)(=O)=O)cc1` yielded an IC50 of under 600 nM.
`Cc1nc(Nc2cncc(Cl)n2)sc1-c1ccc(S(C)(=O)=O)cc1` was tested, and the IC50 was under 600 nM.
Compound `Cc1nc(Nc2nnc(N3CCN(C)CC3)s2)sc1-c1ccc(S(C)(=O)=O)c(C(F)(F)F)c1` has an IC50 of under 600 nM.
In the case of `Cc1cnc(Nc2nc(C)c(-c3ccc(Cl)c(S(=O)(=O)NCCO)c3)s2)s1`, the IC50 is reported as under 600 nM.
In the case of `Cc1nc(Nc2cncc(N3CCOCC3)n2)sc1-c1ccc(S(N)(=O)=O)cc1`, the IC50 is reported as under 600 nM.
Compound `Cc1nc(Nc2ncccn2)sc1-c1ccc(S(N)(=O)=O)cc1` has an IC50 of under 600 nM.
For `Cc1nc(Nc2nnc(N3CCOCC3)s2)sc1-c1ccc(S(C)(=O)=O)c(C(F)(F)F)c1`, the IC50 was under 600 nM.
Work on `Cc1nc(Nc2nnc(CCC(=O)O)s2)sc1-c1ccc(S(N)(=O)=O)cc1` yielded an IC50 of under 600 nM.
With `Cc1nc(Nc2cc[nH]n2)sc1-c1ccc(S(C)(=O)=O)c(F)c1` the IC50 was under 600 nM.
`Cc1nc(Nc2nnc(CC(=O)O)s2)sc1-c1ccc(S(N)(=O)=O)cc1` was tested, and the IC50 was under 600 nM.
`Cc1nc(Nc2cccnc2)sc1-c1ccc(S(C)(=O)=O)c(Cl)c1` gave an IC50 of under 600 nM.
Work on `Cc1nc(Nc2cc[nH]n2)sc1-c1ccc(C(=O)O)cc1` yielded an IC50 of under 600 nM.
`Cc1nc(Nc2cccnc2)sc1-c1ccc(S(N)(=O)=O)c(Cl)c1` gave an IC50 of under 600 nM.
Work on `Cc1nc(Nc2cnccn2)sc1-c1ccc(S(=O)(=O)NC2CC2)cc1` yielded an IC50 of under 600 nM.
`Cc1cnc(Nc2nc(C)c(-c3ccc(C(=O)O)cc3)s2)s1` showed an IC50 of under 600 nM.
In the case of `Cc1nnc(Nc2nc(C)c(-c3ccc(S(C)(=O)=O)c(-n4ccnc4)c3)s2)s1`, the IC50 is reported as under 600 nM.
`Cc1nc(Nc2nnc(CCN3CCOCC3)s2)sc1-c1ccc(S(C)(=O)=O)c(C(F)(F)F)c1` was tested, and the IC50 was under 600 nM.
`COc1ccc(Nc2nc(C)c(-c3ccc(Cl)c(S(C)(=O)=O)c3)s2)cn1` gave an IC50 of under 600 nM.
With `Cc1nc(Nc2cnccn2)sc1-c1cccc(S(N)(=O)=O)c1` the IC50 was under 600 nM.
In the case of `Cc1nc(Nc2cncc(Cl)n2)sc1-c1ccc(S(C)(=O)=O)c(C(F)(F)F)c1`, the IC50 is reported as under 600 nM.
`Cc1nc(Nc2ccn(C)n2)sc1-c1ccc(Cl)c(S(=O)(=O)NCCO)c1` was tested, and the IC50 was under 600 nM.
Work on `Cc1nc(Nc2cncc(Cl)n2)sc1-c1ccc(S(N)(=O)=O)cc1` yielded an IC50 of under 600 nM.
In the case of `CNS(=O)(=O)c1ccc(-c2sc(Nc3cnccn3)nc2C)cc1`, the IC50 is reported as under 600 nM.
`COc1ccc(-c2sc(Nc3cnccn3)nc2C)cc1S(N)(=O)=O` gave an IC50 of under 600 nM.
`Cc1nc(Nc2cncc(N3CCN(C)CC3)n2)sc1-c1ccc(S(N)(=O)=O)cc1` gave an IC50 of under 600 nM.
Work on `Cc1nc(Nc2ccc(Cl)cn2)sc1-c1ccc(S(N)(=O)=O)cc1` yielded an IC50 of under 600 nM.
`Cc1nc(Nc2ccc(N3CCN(C)CC3)nc2)sc1-c1ccc(S(C)(=O)=O)cc1` gave an IC50 of under 600 nM.
For `Cc1nc(Nc2nnc(CCN(C)C)s2)sc1-c1ccc(S(N)(=O)=O)cc1`, the IC50 was under 600 nM.
`Cc1nc(Nc2nnc(C3CCC(C(=O)O)CC3)s2)sc1-c1ccc(S(C)(=O)=O)c(C(F)(F)F)c1` (centres undefined) showed an IC50 of under 600 nM.
`Cc1nc(Nc2nccs2)sc1-c1ccc(S(N)(=O)=O)cc1` was tested, and the IC50 was under 600 nM.
For `Cc1nc(Nc2nnn[nH]2)sc1-c1ccc(S(N)(=O)=O)cc1`, the IC50 was under 600 nM.
For `Cc1csc(Nc2nc(C)c(-c3ccc(S(N)(=O)=O)cc3)s2)n1`, the IC50 was under 600 nM.
Work on `Cc1nc(Nc2cc[nH]n2)sc1-c1ccc(S(C)(=O)=O)c(N2CCN(C)CC2)c1` yielded an IC50 of under 600 nM.
In the case of `Cc1nc(Nc2cnccn2)sc1-c1ccc(S(C)(=O)=O)c(-n2ccnc2C)c1`, the IC50 is reported as under 600 nM.
`Cc1nc(Nc2cc[nH]n2)sc1-c1ccc(S(C)(=O)=O)c(-n2ccnc2)c1` was tested, and the IC50 was under 600 nM.
Work on `Cc1cc(Nc2nc(C)c(-c3ccc(Cl)c(S(=O)(=O)NCCO)c3)s2)n(C)n1` yielded an IC50 of under 600 nM.
In the case of `Cc1nc(Nc2cncc(N3CCN(C)CC3)n2)sc1-c1ccc(S(C)(=O)=O)c(C(F)(F)F)c1`, the IC50 is reported as under 600 nM.
Work on `Cc1nc(Nc2cncc(NCCCO)n2)sc1-c1ccc(S(N)(=O)=O)cc1` yielded an IC50 of under 600 nM.
For `COc1cc(Nc2nc(C)c(-c3ccc(S(N)(=O)=O)cc3)s2)ncn1`, the IC50 was under 600 nM.
With `Cc1nc(Nc2nncs2)sc1-c1ccc(S(N)(=O)=O)cc1` the IC50 was under 600 nM.
For `Cc1nc(Nc2cnccn2)sc1-c1ccc(S(N)(=O)=O)cc1`, the IC50 was under 600 nM.
Compound `Cc1nc(Nc2cc[nH]n2)sc1-c1cccc(S(N)(=O)=O)c1` has an IC50 of under 600 nM.
`CCc1nnc(Nc2nc(C)c(-c3ccc(S(=O)(=O)NCCO)cc3)s2)s1` gave an IC50 of under 600 nM.
`Cc1nc(Nc2nnc(CCC(=O)O)s2)sc1-c1ccc(S(C)(=O)=O)c(C(F)(F)F)c1` gave an IC50 of under 600 nM.
Work on `CCCc1nccn1-c1cc(-c2sc(Nc3nnc(CC)s3)nc2C)ccc1S(C)(=O)=O` yielded an IC50 of under 600 nM.
With `Cc1nc(Nc2cc[nH]n2)sc1-c1cccc(S(=O)(=O)NCCO)c1` the IC50 was under 600 nM.
`Cc1nc(Nc2cnccn2)sc1-c1ccc(C(=O)O)cc1` gave an IC50 of under 600 nM.
In the case of `CNS(=O)(=O)c1ccc(-c2sc(Nc3cncc(OC)n3)nc2C)cc1`, the IC50 is reported as under 600 nM.
With `Cc1nc(Nc2nnc(CCN3CCOCC3)s2)sc1-c1ccc(S(N)(=O)=O)cc1` the IC50 was under 600 nM.
`Cc1nnc(Nc2nc(C)c(-c3ccc(S(N)(=O)=O)cc3)s2)s1` was tested, and the IC50 was under 600 nM.
`Cc1nc(Nc2cc[nH]n2)sc1-c1ccc(Cl)c(S(=O)(=O)N(CCO)CCO)c1` was tested, and the IC50 was under 600 nM.
`CCN(CC)CCN(C)c1cc(-c2sc(Nc3cc[nH]n3)nc2C)ccc1S(C)(=O)=O` was tested, and the IC50 was under 600 nM.
In the case of `COc1ccc(Nc2nc(C)c(-c3ccc(S(N)(=O)=O)cc3)s2)cn1`, the IC50 is reported as under 600 nM.
In the case of `Cc1nc(Nc2cc[nH]n2)sc1-c1ccc(S(N)(=O)=O)cc1`, the IC50 is reported as under 600 nM.
Work on `Cc1nc(Nc2cnccn2)sc1-c1ccc(Cl)c(S(N)(=O)=O)c1` yielded an IC50 of under 600 nM.
`Cc1nc(Nc2cnccn2)sc1-c1ccc(S(C)(=O)=O)c(C(F)(F)F)c1` gave an IC50 of under 600 nM.
In the case of `CCc1nnc(Nc2nc(C)c(-c3cccc(S(N)(=O)=O)c3)s2)s1`, the IC50 is reported as under 600 nM.
In the case of `CCN(CC)CCCNS(=O)(=O)c1cc(-c2sc(Nc3cc[nH]n3)nc2C)ccc1Cl`, the IC50 is reported as under 600 nM.
Compound `Cc1nc(Nc2n[nH]cc2Br)sc1-c1ccc(S(C)(=O)=O)c(F)c1` has an IC50 of under 600 nM.
For `Cc1nc(Nc2cc[nH]n2)sc1-c1ccc(S(C)(=O)=O)c(OCCN2CCOCC2)c1`, the IC50 was under 600 nM.
With `Cc1nc(Nc2cnccn2)sc1-c1ccc(S(C)(=O)=O)c(-n2ccnc2C(C)C)c1` the IC50 was under 600 nM.
Compound `Cc1nc(Nc2cnccn2)sc1-c1ccc(S(C)(=O)=O)c(-n2ccnc2)c1` has an IC50 of under 600 nM.
With `Cc1nc(Nc2ccc(Cl)nn2)sc1-c1ccc(S(N)(=O)=O)cc1` the IC50 was under 600 nM.
`Cc1nc(Nc2cnccn2)sc1-c1ccc([S+](C)[O-])cc1` (centres undefined) gave an IC50 of under 600 nM.
`Cc1nc(Nc2cnccn2)sc1-c1cccc(S(=O)(=O)NCCO)c1` showed an IC50 of under 600 nM.
